According to US20070049564A1 (Wyeth, priority 2005, published 2007):
≈ marks a conversion by molar mass, not a printed value. Like-named read-outs stand apart in the source and are kept apart here.

What was measured:
E. coli GC 2236 = assay: MIC, broth microdilution
Staph. = assay: Range of MIC for Staph. strains, including MRSA; conditions: Staphylococcus aureus, MRSA
E. coli GC 2203 = assay: MIC, broth microdilution
E. faecium GC 4556 = assay: MIC, broth microdilution; conditions: Enterococcus faecium
E. coli GC 2233 = assay: MIC, broth microdilution; conditions: Escherichia coli, GC2233, E. coli GC 2233
S. aureus GC 1079 = assay: MIC, broth microdilution
E. coli GC 6465 = assay: MIC, broth microdilution; conditions: Escherichia coli, GC6465, E. coli GC 6465
S. aureus GC 6467 = assay: MIC, broth microdilution
S. aureus GC 6466 = assay: MIC, broth microdilution; conditions: Staphylococcus aureus
E. faecalis GC 2267 = assay: MIC, broth microdilution
E. coli GC 2234 = assay: MIC, broth microdilution; conditions: Escherichia coli, GC2234, E. coli GC 2234
S. typhimurium GC 2172 = assay: MIC, broth microdilution; conditions: Salmonella enterica, TYPHIMURIUM
S. aureus GC 1131 = assay: MIC, broth microdilution
S. pneumoniae* GC 4465 = assay: MIC, broth microdilution; conditions: Streptococcus pneumoniae
E. coli GC 4560 = assay: MIC, broth microdilution; conditions: Escherichia coli, GC4560, E. coli GC 4560
E. coli GC 2231 = assay: MIC, broth microdilution
S. epidermidis GC 4935 = assay: MIC, broth microdilution
E. coli GC 2272 = assay: MIC, broth microdilution
Protocol: Antimicrobial susceptibility testing. The in vitro activities of the antibiotics are determined by the broth microdilution method as recommended by the National Committee for Clinical Laboratory Standards (NCCLS) (1). Mueller-Hinton II broth (MHBII)(BBL Cockeysville, Md.) is the medium employed in the testing procedures. Microtiter plates containing serial dilutions of each antimicrobial agent are inoculated with each organism to yield the appropriate density (10^5 CFU/ml) in a 100 μl final volume. The plates are incubated for 18-22 hours at 35° C. in ambient air.
Representative compounds were first incubated in mouse serum for an hour prior to the in vitro testing against a panel of selected gram-positive and gram-negative bacteria strains. All compounds were also pre-incubated in water for an hour prior to testing as control. Representative compounds of Formula I were incubated in human serum prior to MIC determination.

E. coli GC 2235 = assay: MIC, broth microdilution
E. faecalis GC 4555 = assay: MIC, broth microdilution; conditions: Enterococcus faecalis
[1] = read-out: Range of MIC, Staph (Mouse Serum)
[2] = read-out: Range of MIC, Staph (Water)

Work on `CCCCN(CC(=O)Nc1cc(N(C)C)c2c(c1O)C(=O)C1=C(O)[C@]3(O)C(=O)C(C(N)=O)=C(O)[C@@H](N(C)C)C3CC1C2)C(=O)OCOC(=O)C(C)C` (stereo partly drawn) [Example 1, ({[(2-{[(7S,10aS)-9-(aminocarbonyl)-4,7-bis(dimethylamino)-1,8,10a,11-tetrahydroxy-10,12-dioxo-5,5a,6,6a,7,10,10a,12-octahydrotetracen-2-yl]amino}-2-oxoethyl)(butyl)amino]carbonyl}oxy)methyl 2-methylpropanoate] yielded an MIC (E. coli GC 2236; Escherichia coli, GC2236, E. coli GC 2236, Mouse Serum pre-incubation) of 1 µg/mL (≈ 1.37 µM), an MIC (E. coli GC 2236; Escherichia coli, GC2236, E. coli GC 2236, Water pre-incubation) of 16 µg/mL (≈ 21.9 µM) and an MIC (Staph.; read-out: Minimum inhibitory concentration (MIC), Staph. (mouse serum)) of 1 to 4 µg/mL (≈ 1.37 to 5.48 µM). For the same compound, the MIC (Staph.; read-out: Minimum inhibitory concentration (MIC), Staph. (water)) was 1 to 8 µg/mL (≈ 1.37 to 11 µM), the MIC (Staph.; [1]) was 1 to 4 µg/mL (≈ 1.37 to 5.48 µM) and the MIC (Staph.; [2]) was 1 to 8 µg/mL (≈ 1.37 to 11 µM). It also gave an MIC (E. coli GC 2203; Escherichia coli, GC2203, E. coli GC 2203, Mouse Serum pre-incubation) of 0.5 µg/mL (≈ 0.685 µM), an MIC (E. coli GC 2203; Escherichia coli, GC2203, E. coli GC 2203, Water pre-incubation) of 16 µg/mL (≈ 21.9 µM) and an MIC (E. faecium GC 4556; GC4556, E. faecium GC 4556, Mouse Serum pre-incubation) of 1 µg/mL (≈ 1.37 µM). The MIC (E. faecium GC 4556; GC4556, E. faecium GC 4556, Water pre-incubation) was 4 µg/mL (≈ 5.48 µM), the MIC (E. coli GC 2233; Mouse Serum pre-incubation) was 1 µg/mL (≈ 1.37 µM) and the MIC (E. coli GC 2233; Water pre-incubation) was 16 µg/mL (≈ 21.9 µM). For the same compound, the MIC (S. aureus GC 1079; Staphylococcus aureus, GC1079, S. aureus GC 1079, Mouse Serum pre-incubation) was 2 µg/mL (≈ 2.74 µM), the MIC (S. aureus GC 1079; Staphylococcus aureus, GC1079, S. aureus GC 1079, Water pre-incubation) was 4 µg/mL (≈ 5.48 µM) and the MIC (E. coli GC 6465; Mouse Serum pre-incubation) was 8 µg/mL (≈ 11 µM). For the same compound, the MIC (E. coli GC 6465; Water pre-incubation) was over 64 µg/mL, the MIC (S. aureus GC 6467; Staphylococcus aureus, GC6467, S. aureus GC 6467, Mouse Serum pre-incubation) was 4 µg/mL (≈ 5.48 µM) and the MIC (S. aureus GC 6467; Staphylococcus aureus, GC6467, S. aureus GC 6467, Water pre-incubation) was 4 µg/mL (≈ 5.48 µM). For the same compound, the MIC (S. aureus GC 6466; GC6466, S. aureus GC 6466, Mouse Serum pre-incubation) was 1 µg/mL (≈ 1.37 µM), the MIC (S. aureus GC 6466; GC6466, S. aureus GC 6466, Water pre-incubation) was 1 µg/mL (≈ 1.37 µM) and the MIC (E. faecalis GC 2267; Enterococcus faecalis, GC2267, E. faecalis GC 2267, Mouse Serum pre-incubation) was 2 µg/mL (≈ 2.74 µM). The MIC (E. faecalis GC 2267; Enterococcus faecalis, GC2267, E. faecalis GC 2267, Water pre-incubation) was 8 µg/mL (≈ 11 µM), the MIC (E. coli GC 2234; Mouse Serum pre-incubation) was 0.5 µg/mL (≈ 0.685 µM) and the MIC (E. coli GC 2234; Water pre-incubation) was 16 µg/mL (≈ 21.9 µM). The MIC (S. typhimurium GC 2172; S. typhimurium GC 2172, Mouse Serum pre-incubation) was 4 µg/mL (≈ 5.48 µM), the MIC (S. typhimurium GC 2172; S. typhimurium GC 2172, Water pre-incubation) was over 64 µg/mL and the MIC (S. aureus GC 1131; Staphylococcus aureus, GC1131, S. aureus GC 1131, Mouse Serum pre-incubation) was 1 µg/mL (≈ 1.37 µM). It also gave an MIC (S. aureus GC 1131; Staphylococcus aureus, GC1131, S. aureus GC 1131, Water pre-incubation) of 4 µg/mL (≈ 5.48 µM), an MIC (S. pneumoniae* GC 4465; S. pneumoniae* GC 4465, Mouse Serum pre-incubation) of 0.5 µg/mL (≈ 0.685 µM) and an MIC (S. pneumoniae* GC 4465; S. pneumoniae* GC 4465, Water pre-incubation) of 0.25 µg/mL (≈ 0.343 µM). For the same compound, the MIC (E. coli GC 4560; Mouse Serum pre-incubation) was 0.5 µg/mL (≈ 0.685 µM), the MIC (E. coli GC 4560; Water pre-incubation) was 2 µg/mL (≈ 2.74 µM) and the MIC (E. coli GC 2231; Escherichia coli, GC2231, E. coli GC 2231, Mouse Serum pre-incubation) was 1 µg/mL (≈ 1.37 µM). It also gave an MIC (E. coli GC 2231; Escherichia coli, GC2231, E. coli GC 2231, Water pre-incubation) of 64 µg/mL (≈ 87.7 µM), an MIC (S. epidermidis GC 4935; Staphylococcus epidermidis, GC4935, S. epidermidis GC 4935, Mouse Serum pre-incubation) of 2 µg/mL (≈ 2.74 µM) and an MIC (S. epidermidis GC 4935; Staphylococcus epidermidis, GC4935, S. epidermidis GC 4935, Water pre-incubation) of 8 µg/mL (≈ 11 µM). The MIC (E. coli GC 2272; Escherichia coli, GC2272, E. coli GC 2272, Mouse Serum pre-incubation) was 1 µg/mL (≈ 1.37 µM), the MIC (E. coli GC 2272; Escherichia coli, GC2272, E. coli GC 2272, Water pre-incubation) was 16 µg/mL (≈ 21.9 µM) and the MIC (E. coli GC 2235; Escherichia coli, GC2235, E. coli GC 2235, Mouse Serum pre-incubation) was 0.5 µg/mL (≈ 0.685 µM). The MIC (E. coli GC 2235; Escherichia coli, GC2235, E. coli GC 2235, Water pre-incubation) was 16 µg/mL (≈ 21.9 µM), the MIC (E. faecalis GC 4555; GC4555, E. faecalis GC 4555, Mouse Serum pre-incubation) was 1 µg/mL (≈ 1.37 µM) and the MIC (E. faecalis GC 4555; GC4555, E. faecalis GC 4555, Water pre-incubation) was 4 µg/mL (≈ 5.48 µM).
`CCCCN(CC(=O)Nc1cc(N(C)C)c2c(c1O)C(=O)C1=C(O)[C@]3(O)C(=O)C(C(N)=O)=C(O)[C@@H](N(C)C)C3CC1C2)C(=O)OCc1oc(=O)oc1C` (stereo partly drawn) [Example 109, (5-methyl-2-oxo-1,3-dioxol-4-yl)methyl 2-{[(7S,10aS)-9-(aminocarbonyl)-4,7-bis(dimethylamino)-1,8,10a,11-tetrahydroxy-10,12-dioxo-5,5a,6,6a,7,10,10a,12-octahydrotetracen-2-yl]amino}-2-oxoethyl(butyl)carbamate] showed an MIC (E. coli GC 2236; Escherichia coli, GC2236, pre-incubation in mouse serum) of 0.5 µg/mL (≈ 0.674 µM), an MIC (E. coli GC 2236; Escherichia coli, GC2236, pre-incubation in water) of 1 µg/mL (≈ 1.35 µM) and an MIC (E. coli GC 2236; pre-incubation in water) of 2 UG/ML. For the same compound, the MIC (Staph.; [1]) was 0.5 to 2 µg/mL (≈ 0.674 to 2.7 µM), the MIC (Staph.; [2]) was 4 to 8 µg/mL (≈ 5.39 to 10.8 µM) and the MIC (E. coli GC 2203; Escherichia coli, GC2203, pre-incubation in mouse serum) was 0.5 µg/mL (≈ 0.674 µM). For the same compound, the MIC (E. coli GC 2203; Escherichia coli, GC2203, pre-incubation in water) was 1 µg/mL (≈ 1.35 µM), the MIC (E. coli GC 2203; pre-incubation in water) was 2 UG/ML and the MIC (E. faecium GC 4556; GC4556, pre-incubation in mouse serum) was 1 µg/mL (≈ 1.35 µM). It also gave an MIC (E. faecium GC 4556; GC4556, pre-incubation in water) of 2 µg/mL (≈ 2.7 µM), an MIC (S. aureus GC 1079; Staphylococcus aureus, GC1079, pre-incubation in mouse serum) of 2 µg/mL (≈ 2.7 µM) and an MIC (S. aureus GC 1079; Staphylococcus aureus, GC1079, pre-incubation in water) of 4 µg/mL (≈ 5.39 µM). For the same compound, the MIC (S. aureus GC 1079; pre-incubation in water) was 8 UG/ML, the MIC (S. aureus GC 6467; Staphylococcus aureus, GC6467, pre-incubation in mouse serum) was 2 µg/mL (≈ 2.7 µM) and the MIC (S. aureus GC 6467; Staphylococcus aureus, GC6467, pre-incubation in water) was 4 µg/mL (≈ 5.39 µM). It also gave an MIC (S. aureus GC 6467; pre-incubation in water) of 8 UG/ML, an MIC (S. aureus GC 6466; GC6466, pre-incubation in mouse serum) of 0.5 µg/mL (≈ 0.674 µM) and an MIC (E. faecalis GC 2267; Enterococcus faecalis, GC2267, pre-incubation in mouse serum) of 1 µg/mL (≈ 1.35 µM). For the same compound, the MIC (E. faecalis GC 2267; Enterococcus faecalis, GC2267, pre-incubation in water) was 2 µg/mL (≈ 2.7 µM), the MIC (E. faecalis GC 2267; pre-incubation in water) was 4 UG/ML and the MIC (S. typhimurium GC 2172; pre-incubation in mouse serum) was 4 µg/mL (≈ 5.39 µM). It also gave an MIC (S. typhimurium GC 2172; pre-incubation in water) of 16 µg/mL (≈ 21.6 µM), an MIC (S. aureus GC 1131; Staphylococcus aureus, GC1131, pre-incubation in mouse serum) of 1 µg/mL (≈ 1.35 µM) and an MIC (S. aureus GC 1131; Staphylococcus aureus, GC1131, pre-incubation in water) of 2 µg/mL (≈ 2.7 µM). The MIC (S. aureus GC 1131; pre-incubation in water) was 4 UG/ML, the MIC (S. pneumoniae* GC 4465; pre-incubation in mouse serum) was under 0.06 µg/mL and the MIC (E. coli GC 2231; Escherichia coli, GC2231, pre-incubation in mouse serum) was 0.5 µg/mL (≈ 0.674 µM). For the same compound, the MIC (E. coli GC 2231; Escherichia coli, GC2231, pre-incubation in water) was 1 µg/mL (≈ 1.35 µM), the MIC (E. coli GC 2231; pre-incubation in mouse serum) was 1 UG/ML and the MIC (E. coli GC 2231; pre-incubation in water) was 2 UG/ML. For the same compound, the MIC (S. epidermidis GC 4935; Staphylococcus epidermidis, GC4935, pre-incubation in mouse serum) was 2 µg/mL (≈ 2.7 µM), the MIC (S. epidermidis GC 4935; Staphylococcus epidermidis, GC4935, pre-incubation in water) was 4 µg/mL (≈ 5.39 µM) and the MIC (S. epidermidis GC 4935; pre-incubation in water) was 8 UG/ML. The MIC (E. coli GC 2272; Escherichia coli, GC2272, pre-incubation in mouse serum) was 0.25 µg/mL (≈ 0.337 µM), the MIC (E. coli GC 2272; pre-incubation in mouse serum) was 0.50 UG/ML and the MIC (E. coli GC 2235; Escherichia coli, GC2235, pre-incubation in mouse serum) was 0.25 µg/mL (≈ 0.337 µM). For the same compound, the MIC (E. coli GC 2235; Escherichia coli, GC2235, pre-incubation in water) was 0.5 µg/mL (≈ 0.674 µM), the MIC (E. coli GC 2235; pre-incubation in mouse serum) was 0.50 UG/ML and the MIC (E. coli GC 2235; pre-incubation in water) was 1 UG/ML. It also gave an MIC (E. faecalis GC 4555; GC4555, pre-incubation in mouse serum) of 0.5 µg/mL (≈ 0.674 µM) and an MIC (E. faecalis GC 4555; GC4555, pre-incubation in water) of 1 µg/mL (≈ 1.35 µM).
